Measured values: US20110136880A1, “Latrunculin-Based Macrolides and Their Uses” (priority 2009, published 2011)

What was measured:
PC-3 = assay: MTT proliferation assay, PC-3; assay type: cell-based, human
Description: (§1) The antiproliferative and anti-invasive activities of compounds 1-14 were quantified using MTT and cell invasion assay kits, respectively. Latrunculin A (compound 1) was used as a positive control in all biological assays, because it is known to be an actin polymerization inhibitor, with cytotoxic, antiproliferative, and anti-invasive activities. The 3-[4,5-dimethylthiazol-2-yl]-2,5-diphenyl tetrazolium bromide (MTT) assay selectively detects living cells in a quantitative, colorimetric fashion, based on a living cell's ability to reduce MTT to an insoluble, purple formazan dye. The MTT assay is routinely used to assess cytotoxicity and proliferation inhibition activities. The antiproliferative activities of compounds 1-14 were measured against two human mammary gland adenocarcinoma cell lines, MCF7 and MDA-MB-231, and against human prostate cancer cells PC-3 at five different doses (0.1, 0.5, 1, 10, and 50 μM). While many of the semisynthetic latrunculins had similar activity levels, some had greater activity than compound 1. […] Although the MDA-MB-231 cells were more resistant than MCF7 against most latrunculin derivatives tested, compound 14 had potent activity against both cell lines.
(§2) MTT Proliferation Assay. The growth of MCF7, MDA-MB-231, and PC-3 cancer cell lines was measured using an MTT kit (TACS™, TREVIGEN®, Inc.). Exponentially growing cells were plated in a 96-well plate at a density of 8×10^3 cells per well, and allowed to attach for 24 h. Complete growth medium was then replaced with 100 μL of RPMI serum-free medium containing various concentrations (50, 10, 1, 0.5, 0.1 μM) of the particular test compound. Culture continued at 37° C. under 5% CO2. After 72 h of culture, the cells were treated with MTT solution (10 μL/well) at 37° C. for 4 h. The color reaction was stopped by adding solubilization/stop solution (100 μL/well). Incubation continued at 37° C. continued to completely dissolve the formazan dye product. Absorbance of the samples was determined at 570 nm with an ELISA plate reader (BioTek, VT). The number of cells per well was calculated against a standard curve that had been prepared by plating various concentrations of cells, as determined by hemocytometer, at the start of each experiment. IC50 for each compound was calculated using a nonlinear regression curve fit of log concentration versus the number of cells/well, using GraphPad Prism 5.0 (GraphPad Software, La Jolla, Calif.).

[1] = test system: breast, CNS, colon, lung, melanoma, ovarian, and renal cancer cells; assay: Antiproliferative testing against 60 cell lines (NSC compounds); assay type: cell-based
MCF7 = assay: MTT proliferation assay, MCF7; assay type: cell-based, human
Description: as §1, §2

pyrene-conjugated actin = target: T1, pyrene-conjugated actin (Oryctolagus cuniculus, UniProt P68135); assay: Pyrene actin polymerization assay; assay type: biochemical
T1 construct: purchased Cytoskeleton, Denver, Colo
Experimental: An actin polymerization kit was used to assess the direct actin-binding activity of each analogue at two concentrations: 100 nM and 1 μM. This kit is based on the enhanced fluorescence of pyrene-conjugated actin that occurs during polymerization. When pyrene-G-actin (monomer) forms pyrene-F-actin, fluorescence is enhanced. The enhanced fluorescence is used to follow polymerization over time. Table 2 lists activities as the percentage of actin polymerization inhibition, compared to the negative vehicle control (DMSO), along with calculated IC50.
Pyrene-Actin Polymerization Assays. Actin polymerization assays were performed in accordance with the manufacturer's instructions (Cytoskeleton, Denver, Colo.). Briefly, […] final concentration of monomeric actin (1:10 pyrene labeled) was incubated on ice for 10 min with one of various concentrations of one of the latrunculin derivatives. Samples were then equilibrated 10 min in an ELISA plate reader (BioTek, VT), after which polymerization was induced by adding KCl, MgCl2, and ATP. Compounds 1-14 were tested at 0.1, 0.5, 1.0, and 10 μM. The IC50 for each compound was calculated using GraphPad Prism 5.0.
Pyrene-actin polymerization assays. Actin polymerization inhibitory activity is assessed using the Cytoskeleton Actin Polymerization kit (Cytoskeleton, Denver, Colo.). Briefly, […] (final concentration) of monomeric actin (1:10 pyrene labeled) is incubated on ice for 10 min with one of various concentrations of the test latrunculin compound. Samples are equilibrated 10 min in an ELISA plate reader (BioTek, VT), after which polymerization is induced by adding KCl, MgCl2, and ATP. Compounds are tested at 0.1, 0.5, 1.0, and 10 μM. The IC50 for each compound is calculated using GraphPad Prism 5.0.

MDA-MB-231 cells = assay: Cultrex BME cell invasion assay; assay type: cell-based, human
Experimental: The anti-invasive activities of compounds 1-14 were measured using a 96 well basement membrane extract (BME) cell invasion assay kit against the highly metastatic MDA-MB-231 cells. This assay employs a simplified Boyden Chamber with a polyethylene terephthalate membrane (8 μm pore size). Cell invasion was quantified using calcein-acetomethylester (calcein-AM). Cells internalize calcein-AM; intracellular esterases then cleave the acetomethylester moiety to generate free calcein. Free calcein fluoresces brightly. This fluorescence may be used to quantify the number of cells that have invaded across the BME. To correlate the anti-invasive activities of the latrunculin A derivatives with their actin-disrupting activities, compounds 1-14 were each tested at non-toxic concentrations. […] Accordingly, all compounds were tested at 0.1, 0.5, and 1.0 μM. Compound 3 killed 17% of MDA-MB-231 cells at 1.0 μM, while the same dose of compound 3 inhibited 95% of MDA-MB-231 cells' invasion. […] The anti-invasive activities of compounds 1-14 are attributed primarily to the inhibition of actin polymerization, not to cell death per se.
Cultrex® Cell Invasion Assay. Anti-invasive activities were measured using Trevigen's Cultrex® Cell Invasion Assay as described in K. Tamilarasan et al., BMC Cell Biol. 2006, 7, 17-30; and P. Borghesani et al., Development. 2002, 6, 1435-1442. About 50 μL of basement membrane extract (BME) coat was added to each well. After incubation for 4 h at 37° C. under 5% CO2, 50,000 MDA-MB-231 cells in 50 μL of serum free RPMI medium were added to each well in the top chamber, along with the test compound at one of several concentrations (0.1, 0.5, 1 μM). About 150 μL of RPMI medium was added to the lower chamber in 10% FBS and penicillin/streptomycin, using fibronectin ([…]) and N-formyl-met-leu-phe (10 nM) as chemoattractants. Cells were allowed to migrate to the lower chamber at 37° C. under 5% CO2. After 24 h, the top and bottom chambers were aspirated and washed with the washing buffer that had been supplied with the kit. About 100 μL of Cell Dissociation Solution/Calcein-AM solution was added to the bottom chamber, and the cells were incubated at 37° C. under CO2 for 1 h. Briefly, the cells internalize calcein-AM, and then the intracellular esterases cleave the AM moiety to generate free calcein. […] The number of cells that had invaded through the BME coat was calculated using a standard curve.

MDA-MB-231 = assay: MTT proliferation assay, MDA-MB-231; assay type: cell-based, human
Description: as §1, §2

[2] = test system: alkaline phosphatase in C2C12 cells; assay: Alkaline phosphatase in C2C12 cells (Wnt pathway); assay type: cell-based
Description: (§3) Effects on Wnt/β-catenin. […] These two compounds affected both alkaline phosphatase and β-catenin levels in C2C12 cells.

β-catenin in C2C12 cells = assay: Wnt/β-catenin signaling, β-catenin levels in C2C12 cells; assay type: cell-based
Description: as §3

HeLa cells = assay: HeLa cell G2/M assays; assay type: cell-based; settings: less active than compound 11
Description: This assay measures HeLa cell proliferation, apoptosis, DNA content and condensation, cyclin B, and phosphor-histone H3.

[3] = test system: microvessel density marker CD31 in endothelial colony forming cells (ECFCs); assay: Angiogenesis inhibition assay (CD31 in ECFCs); assay type: cell-based
Experimental: Effects on Angiogenesis. Angiogenesis inhibition assays were conducted using endothelial colony forming cells (ECFCs). The microvessel density marker CD31 was quantified using confocal laser scanning microscopy and immunohistochemistry.

[4] = test system: alkaline phosphatase in HuADSC cells; assay: Alkaline phosphatase in HuADSC cells; assay type: cell-based
array of kinases = assay: Kinase profiling; assay type: binding; settings: any kinase tested
Experimental: Latrunculins B and H (compounds 20 and 14, respectively) were tested in a panel of assays including ApoE secretion, anti-angiogenesis, G2/M, Wnt pathway, insulin secretion, and an array of kinase profiling. The G2/M assays include HeLa cell proliferation, apoptosis, DNA content, and condensation, cyclin B, and phosphor-histone H3. […] Alkaline phosphatases may perhaps be a target of the anti-invasive latrunculin 11.

[5] = test system: prostate cancer cells PC-3M-CT+; settings: 100 nM dose; without cytotoxicity; cited from earlier work

With C/C1=C/C(=O)O[C@@H]2C[C@@H](CC[C@H](C)/C=C\C=C\CC1)O[C@@](OCCc1ccccc1)([C@@H]1CSC(=O)N1)C2 [Compound 3, 17-O-Phenylethyllatrunculin A] the IC50 (PC-3; Homo sapiens, PC-3, MTT, 72 h, read-out: IC50 (μM) PC-3) was 1.22 µM, the “fold increase in activity against PC-3 versus compound 1” value (PC-3; relative to compound 1) was 3.2 fold and the “number of the 60 cell lines tested with antiproliferative activity” value ([1]; dose of 10 μM) was 18. For the same molecule, the log10GI50 ([1]; five-points dose-response, range over active cell lines) was −7.02 to −7.90, the IC50 (MCF7; Homo sapiens, MCF7, MTT, 72 h, mean ± SEM, read-out: IC50 (μM) MCF7) was 0.1 ± 0.07 µM and the “fold increase in activity against MCF7 versus compound 1” value (MCF7; relative to compound 1) was 4.8 fold. It also gave an inhibition at 0.1 µM (pyrene-conjugated actin; 100 nM, compared to vehicle control (DMSO), read-out: Actin polymerization inhibition (%) 100 nM) of 31%, an inhibition at 1 µM (pyrene-conjugated actin; 1 μM, compared to vehicle control (DMSO), read-out: Actin polymerization inhibition (%) 1 μM) of 94% and an IC50 (pyrene-conjugated actin; mean ± SEM, triplicate) of 184 ± 48 nM. For the same molecule, the “fold more active against cell invasion than latrunculin A (compound 1)” value (MDA-MB-231 cells; 0.5 μM) was 3.3 fold, the inhibition at 1 µM (MDA-MB-231 cells; Homo sapiens, MDA-MB-231, 1.0 μM) was 95% and the MDA-MB-231 cells killed (MDA-MB-231; 1.0 μM) was 17%. It also gave an IC50 (MDA-MB-231; Homo sapiens, MDA-MB-231, MTT, 72 h, mean ± SEM, read-out: IC50 (μM) MDA-MB-231) of 2.71 ± 0.52 µM.
With C/C1=C/C(=O)O[C@@H]2C[C@@H](CC[C@H](C)/C=C\CC1)O[C@@](O)([C@@H]1CSC(=O)N1)C2 [Compound 20, latrunculin B] the EC50 [2] was 91 nM, the Wnt/β-catenin signaling (β-catenin in C2C12 cells) was “strongly inhibited” and the “activity in G2_M assays compared with nocodazole” value (HeLa cells) was “greater activity than did nocodazole”. For the same molecule, the “inhibition of CD31 in ECFCs” value ([3]; 2 μM) was 100%, the “inhibition of CD31 in ECFCs” value ([3]; 10 μM) was 100% and the IC50 ([3]; read-out: IC50 CD31 in ECFCs) was 43 nM. For the same molecule, the EC50 [4] was 141 nM and the affinity toward kinases (array of kinases) was “Neither compound 20 nor compound 14 showed affinity toward any kinase tested”.
In the case of “latrunculin A 17-O-phenyl carbamate [Compound 18]”, the “migration of PC-3M-CT+ cells” value [5] is given as “inhibits the migration”.
